Data reported in ChEMBL document CHEMBL1155285, “3D-QSAR CoMFA/CoMSIA models based on theoretical active conformers of HOE/BAY-793 analogs derived from HIV-1 protease inhibitor complexes” (Eur J Med Chem, 2009).

The compounds below were run against Protease (Human immunodeficiency virus 1, UniProt Q9YQ12) (assay: Inhibition of HIV1 protease expressed in Escherichia coli K12 assessed as inhibition of enzyme activity).
Sequence of Protease (Q9YQ12 whole entry): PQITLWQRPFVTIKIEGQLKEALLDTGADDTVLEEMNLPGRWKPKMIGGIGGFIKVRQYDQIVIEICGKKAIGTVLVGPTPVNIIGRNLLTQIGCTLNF

First: CC(C)[C@H](NC(=O)OCc1ccccc1)C(=O)N[C@@H](Cc1ccccc1)[C@@H](O)[C@H](O)[C@H](Cc1ccccc1)NC(=O)[C@@H](NC(=O)OCc1ccccc1)C(C)C
Second: CC(C)[C@H](NC(=O)[C@@H](N)Cc1ccccc1)C(=O)N[C@@H](Cc1ccccc1)[C@@H](O)[C@H](O)[C@H](Cc1ccccc1)NC(=O)[C@@H](NC(=O)[C@@H](N)Cc1ccccc1)C(C)C
The IC50 of the first is 2.4-fold higher: 2 nM for the first, 0.851 nM for the second.

Compared with CC(C)[C@H](NC(=O)[C@H](Cc1cccc2ccccc12)CS(=O)(=O)C(C)(C)C)C(=O)N[C@@H](CCc1ccncc1)[C@@H](O)[C@H](O)[C@H](CCc1ccncc1)NC(=O)[C@@H](NC(=O)[C@H](Cc1cccc2ccccc12)CS(=O)(=O)C(C)(C)C)C(C)C, CC(C)[C@H](NC(=O)[C@H](Cc1cccc2ccccc12)CS(=O)(=O)C(C)(C)C)C(=O)N[C@@H](CCc1ccccc1)[C@@H](O)[C@H](O)[C@H](CCc1ccccc1)NC(=O)[C@@H](NC(=O)[C@H](Cc1cccc2ccccc12)CS(=O)(=O)C(C)(C)C)C(C)C is 2.6-fold higher in IC50: 141 nM for the first, 363 nM for the second.

CC(C)[C@H](NC(=O)[C@H](Cc1cccc2ccccc12)CS(=O)(=O)C(C)(C)C)C(=O)N[C@@H](Cc1cccc2c1OCO2)[C@@H](O)[C@H](O)[C@H](Cc1cccc2c1OCO2)NC(=O)[C@@H](NC(=O)[C@H](Cc1cccc2ccccc12)CS(=O)(=O)C(C)(C)C)C(C)C and CC(C)[C@H](NC(=O)[C@H](Cc1cccc2ccccc12)CS(=O)(=O)C(C)(C)C)C(=O)N[C@@H](Cc1ccccc1)[C@@H](O)[C@H](O)[C@H](Cc1ccccc1)NC(=O)[C@@H](NC(=O)[C@H](Cc1cccc2ccccc12)CS(=O)(=O)C(C)(C)C)C(C)C are within 1.5-fold of each other in IC50: 0.398 nM for the first, 0.302 nM for the second.

CCC(C)[C@H](NC(=O)[C@H](Cc1cccc2ccccc12)CS(=O)(=O)C(C)(C)C)C(=O)N[C@@H](Cc1ccccc1)[C@@H](O)[C@H](O)[C@H](Cc1ccccc1)NC(=O)[C@@H](NC(=O)[C@H](Cc1cccc2ccccc12)CS(=O)(=O)C(C)(C)C)C(C)CC (stereo partly specified) and CC(O)[C@H](NC(=O)[C@H](Cc1cccc2ccccc12)CS(=O)(=O)C(C)(C)C)C(=O)N[C@@H](Cc1ccccc1)[C@@H](O)[C@H](O)[C@H](Cc1ccccc1)NC(=O)[C@@H](NC(=O)[C@H](Cc1cccc2ccccc12)CS(=O)(=O)C(C)(C)C)C(C)O (stereo partly specified) are the same in IC50: 0.302 nM for the first, 0.302 nM for the second.

Compared with COc1ccc(C[C@H](NC(=O)[C@@H](NC(=O)[C@H](Cc2cccc3ccccc23)CS(=O)(=O)C(C)(C)C)C(C)C)[C@@H](O)[C@H](O)[C@H](Cc2ccc(OC)cc2OC)NC(=O)[C@@H](NC(=O)[C@H](Cc2cccc3ccccc23)CS(=O)(=O)C(C)(C)C)C(C)C)c(OC)c1, CC(C)[C@H](NC(=O)[C@H](Cc1cccc2ccccc12)CS(=O)(=O)C(C)(C)C)C(=O)N[C@@H](Cc1ccc(O)cc1)[C@@H](O)[C@H](O)[C@H](Cc1ccc(O)cc1)NC(=O)[C@H](NC(=O)[C@H](Cc1cccc2ccccc12)CS(=O)(=O)C(C)(C)C)C(C)C is 6.3-fold lower in IC50: 18.2 nM for the first, 2.88 nM for the second. The second is the more potent here.

CC(C)(C)[C@H](NC(=O)[C@H](Cc1cccc2ccccc12)CS(=O)(=O)C(C)(C)C)C(=O)N[C@@H](Cc1ccccc1)[C@@H](O)[C@H](O)[C@H](Cc1ccccc1)NC(=O)[C@@H](NC(=O)[C@H](Cc1cccc2ccccc12)CS(=O)(=O)C(C)(C)C)C(C)(C)C and CCC[C@H](NC(=O)[C@H](Cc1cccc2ccccc12)CS(=O)(=O)C(C)(C)C)C(=O)N[C@@H](Cc1ccccc1)[C@@H](O)[C@H](O)[C@H](Cc1ccccc1)NC(=O)[C@H](CCC)NC(=O)[C@H](Cc1cccc2ccccc12)CS(=O)(=O)C(C)(C)C are within 1.5-fold of each other in IC50: 0.501 nM for the first, 0.398 nM for the second.

Compared with CC(C)(C)S(=O)(=O)C[C@@H](Cc1cccc2ccccc12)C(=O)N[C@@H](CCC(=O)O)C(=O)N[C@@H](Cc1ccccc1)[C@@H](O)[C@H](O)[C@H](Cc1ccccc1)NC(=O)[C@H](CCC(=O)O)NC(=O)[C@H](Cc1cccc2ccccc12)CS(=O)(=O)C(C)(C)C, CC(C)(C)S(=O)(=O)C[C@@H](Cc1cccc2ccccc12)C(=O)N[C@@H](CC(N)=O)C(=O)N[C@@H](Cc1ccccc1)[C@@H](O)[C@H](O)[C@H](Cc1ccccc1)NC(=O)[C@H](CC(N)=O)NC(=O)[C@H](Cc1cccc2ccccc12)CS(=O)(=O)C(C)(C)C is 130-fold higher in IC50: 0.741 nM for the first, 100 nM for the second. The first is the more potent here.

Compared with CC(C)(C)S(=O)(=O)C[C@@H](Cc1cccc2ccccc12)C(=O)N[C@H](C(=O)N[C@@H](Cc1ccccc1)[C@@H](O)[C@H](O)[C@H](Cc1ccccc1)NC(=O)[C@@H](NC(=O)[C@H](Cc1cccc2ccccc12)CS(=O)(=O)C(C)(C)C)C1CCCCC1)C1CCCCC1, CC(C)(C)S(=O)(=O)C[C@@H](Cc1cccc2ccccc12)C(=O)N[C@H](C(=O)N[C@@H](Cc1ccccc1)[C@@H](O)[C@H](O)[C@H](Cc1ccccc1)NC(=O)[C@@H](NC(=O)[C@H](Cc1cccc2ccccc12)CS(=O)(=O)C(C)(C)C)C1CCCC1)C1CCCC1 is 5.6-fold lower in IC50: 1.7 nM for the first, 0.302 nM for the second.

First: CC(C)[C@H](NC(=O)CCS(=O)(=O)C(C)(C)C)C(=O)N[C@@H](Cc1ccccc1)[C@@H](O)[C@H](O)[C@H](Cc1ccccc1)NC(=O)[C@@H](NC(=O)CCS(=O)(=O)C(C)(C)C)C(C)C
Second: CC(C)[C@H](NC(=O)[C@H](Cc1ccncc1)CS(=O)(=O)C(C)(C)C)C(=O)N[C@@H](Cc1ccccc1)[C@@H](O)[C@H](O)[C@H](Cc1ccccc1)NC(=O)[C@@H](NC(=O)[C@H](Cc1ccncc1)CS(=O)(=O)C(C)(C)C)C(C)C
The IC50 of the first is 5-fold higher: 3.98 nM for the first, 0.794 nM for the second. The second is the more potent here.

Compared with CC(C)[C@H](NC(=O)[C@H](Cc1cccc2ccccc12)NS(C)(=O)=O)C(=O)N[C@@H](Cc1ccccc1)[C@@H](O)[C@H](O)[C@H](Cc1ccccc1)NC(=O)[C@@H](NC(=O)[C@H](Cc1cccc2ccccc12)NS(C)(=O)=O)C(C)C, CC(C)[C@H](NC(=O)COc1cccc2ccccc12)C(=O)N[C@@H](Cc1ccccc1)[C@@H](O)[C@H](O)[C@H](Cc1ccccc1)NC(=O)[C@@H](NC(=O)COc1cccc2ccccc12)C(C)C is 48-fold higher in IC50: 0.794 nM for the first, 38 nM for the second.

First: COc1ccc(C[C@H](CS(=O)(=O)C(C)(C)C)C(=O)N[C@H](C(=O)N[C@@H](Cc2ccccc2)[C@@H](O)[C@H](O)[C@H](Cc2ccccc2)NC(=O)[C@@H](NC(=O)[C@H](Cc2ccc(OC)cc2)CS(=O)(=O)C(C)(C)C)C(C)C)C(C)C)cc1
Second: CC(C)[C@H](NC(=O)[C@H](Cc1ccccc1)CS(=O)(=O)C(C)(C)C)C(=O)N[C@@H](Cc1ccccc1)[C@@H](O)[C@H](O)[C@H](Cc1ccccc1)NC(=O)[C@@H](NC(=O)[C@H](Cc1ccccc1)CS(=O)(=O)C(C)(C)C)C(C)C
The IC50 of the first is 9.6-fold lower: 0.339 nM for the first, 3.24 nM for the second. The first is the more potent here.

Compared with CC(C)[C@H](NC(=O)CCS(=O)(=O)c1ccncc1)C(=O)N[C@@H](Cc1ccccc1)[C@@H](O)[C@H](O)[C@H](Cc1ccccc1)NC(=O)[C@@H](NC(=O)CCS(=O)(=O)c1ccncc1)C(C)C, CC(C)[C@H](NC(=O)OCc1cccnc1)C(=O)N[C@@H](Cc1ccccc1)[C@@H](O)[C@H](O)[C@H](Cc1ccccc1)NC(=O)[C@@H](NC(=O)OCc1cccnc1)C(C)C is 3.1-fold lower in IC50: 3.98 nM for the first, 1.29 nM for the second.

Going from CC(C)[C@H](NC(=O)[C@@H](CC(=O)O)Cc1ccccc1)C(=O)N[C@@H](Cc1ccccc1)[C@@H](O)[C@H](O)[C@H](Cc1ccccc1)NC(=O)[C@@H](NC(=O)[C@@H](CC(=O)O)Cc1ccccc1)C(C)C to CC(C)[C@H](NC(=O)[C@@H](O)Cc1ccccc1)C(=O)N[C@@H](Cc1ccccc1)[C@@H](O)[C@H](O)[C@H](Cc1ccccc1)NC(=O)[C@@H](NC(=O)[C@@H](O)Cc1ccccc1)C(C)C, the IC50 rises from 1.41 nM to 21.9 nM (16-fold).

Going from CCCCC[C@H](NC(=O)[C@@H](NC(=O)[C@H](Cc1cccc2ccccc12)CS(=O)(=O)C(C)(C)C)C(C)C)[C@@H](O)[C@H](O)[C@@H](CCCCC)NC(=O)[C@H](NC(=O)[C@H](Cc1cccc2ccccc12)CS(=O)(=O)C(C)(C)C)C(C)C to CC(C)[C@H](NC(=O)[C@H](Cc1cccc2ccccc12)CS(=O)(=O)C(C)(C)C)C(=O)NC[C@@H](O)[C@H](O)CNC(=O)[C@@H](NC(=O)[C@H](Cc1cccc2ccccc12)CS(=O)(=O)C(C)(C)C)C(C)C, the IC50 rises from 1 nM to 2.19 nM (2.2-fold). The first is the more potent here.

Going from CC(C)(C)S(=O)(=O)C[C@@H](Cc1cccc2ccccc12)C(=O)N[C@@H](Cc1c[nH]cn1)C(=O)N[C@@H](Cc1ccccc1)[C@@H](O)[C@H](O)[C@H](Cc1ccccc1)NC(=O)[C@H](Cc1c[nH]cn1)NC(=O)[C@H](Cc1cccc2ccccc12)CS(=O)(=O)C(C)(C)C to CC(C)[C@H](NC(=O)[C@H](Cc1ccccc1)NC(=O)[C@@H](O)C(O)[C@@H](O)C(O)O)C(=O)N[C@@H](Cc1ccccc1)[C@@H](O)[C@H](O)[C@H](Cc1ccccc1)NC(=O)[C@@H](NC(=O)[C@H](Cc1ccccc1)NC(=O)[C@@H](O)[C@@H](O)[C@@H](O)C(O)O)C(C)C (single isomer, unassigned), the IC50 falls from 339 nM to 0.891 nM (380-fold). The second is the more potent here.

CC(C)[C@H](NC(=O)N(C)Cc1ccccn1)C(=O)N[C@@H](Cc1ccccc1)C(O)C(O)[C@H](Cc1ccccc1)NC(=O)[C@@H](NC(=O)N(C)Cc1ccccn1)C(C)C (single isomer, unassigned) [A-76928] was tested, and the IC50 was 15.1 nM.
